Experimental data as given in US20050209288A1, “Compositions comprising (S)-amlodipine malate and an angiotensin receptor blocker and methods of their use” (priority 2004, published 2005).

How the values were obtained:
Assay type in all cases: in vivo, rat
rats [1] = assay: Phase II: dose-response of hypotensive effect, ED30/ED50 relative to sodium nitroprusside
Procedure: (§1) (S)-amlodipine malate and seven ARBs (candasartan, eprosartan, irbesartan, losartan, olmesartan, telmisartan and valsartan) were evaluated. The study was conducted in three parts. Phase I evaluated the time-course of the hypotensive actions of all eight agents ([S]-amlodipine and the seven ARBs). In Phase II, the dose-responsive effects of [S]-amlodipine malate and the seven ARBs were evaluated individually. From this phase of the study, ED30 and ED50 doses of each of the seven ARBs were identified, defined as the dose that produced 30 or 50 percent of the hypotensive effect produced by a rapid i.v. injection (30 μg/kg) of sodium nitroprusside (NTP), a short-acting vasodilator. In Phase III, the dose response to [S]-amlodipine was evaluated in the presence and absence of the ED30 and ED50 dose of each of the seven ARBs, with the objective of comparing the extent to which each ARB, at its ED30 or ED50, shifted the dose-response curve of [S]-amlodipine to the left and thus, lowering the apparent ED50 of the calcium channel blocker.
(§2) Animals were anesthetized with thiobutabarbital sodium (Inactin®, 150 mg/kg, delivered i.p.), tracheotomized and placed on a thermostatically controlled heating pad (37-38° C.). The jugular vein and the carotid artery were cannulated with PE-50 tubing for drug administration and recording of cardiovascular parameters, respectively. Blood pressure was recorded from the carotid artery by means of a pressure transducer and heart rate was derived electronically from the blood pressure signal. The signal output derived electronically from the arterial pressure was analyzed with a digital computer. The software IOX-16 continuously recorded the data every 5 sec during the entire procedure for each rat. Raw arterial pressure (in mmHg) and heart rate (beats per min), as well as changes in these two parameters relative to baseline or pre-drug levels (for doses other than initial dose), both in raw units (mm Hg or beats per min [bpm]) and as percentage change from baseline were captured and analyzed. The animals were allowed to equilibrate for 15-20 min before any treatment.
(§3) Doses are expressed in terms of free active substance. Each treatment was administered in a volume of 1 mL/kg by slow (over 20-30 seconds) i.v. bolus for all test articles, in all three phases.
(§4) The data were reported as mean ±S.E.M. (standard error of the mean) from 3-5 rats per group. Raw arterial pressure (in mmHg) and heart rate (beats per min), as well as changes in these two parameters relative to baseline or pre-drug levels (for doses other than initial dose), both in raw units (mmHg or beats per min [bpm]) and as percentage change from baseline, were captured and analyzed.
(§5) ED30 and ED50 for each drug were defined as the dose causing a decline in arterial pressure corresponding to 30% and to 50%, respectively, of the maximal drop in blood pressure produced by fast bolus i.v. injection (30 μg/kg) of sodium nitroprusside.
In this phase, the hypotensive response to sodium nitroprusside (NTP, 30 μg/kg, i.v. bolus), which was injected once at the end of the equilibration period, was used as a comparator and ED30 and ED50 doses were estimated as the percentage of the maximum NTP effect.

rats [2] = assay: Phase III: dose response to (S)-amlodipine malate in absence and presence of an ARB (co-administration); details: for dose response curve of ARB plus (S)-amlodipine malate relative to (S)-amlodipine malate alone: ARB at its ED30 dose; for Potential Dosage Adjustment (%) of (S)-amlodipine malate (adjustment factor): co-administration with the named ARB, relative to ED50 92 μg/kg alone
Procedure: as §1, §2, §3, §4, §5
Dose-response curves with (S)-amlodipine malate in the absence and presence of each of the seven ARBs at its ED30 are shown in FIGS. 1A and 1B. The data shown in the figures are from experiments in which ED30 doses of each of the ARBs was combined with (S)-amlodipine malate. These were chosen because ED30 doses were obtainable by direct interpolation of dose response curves from Phase II. For several of the ARBs, doses corresponding to ED50 were obtained from extrapolation of their dose response curves.

rats [3] = details: anesthetized rats, 100 μg/kg i.v.
Procedure: as §1
as §2, with “The animals were allowed to equilibrate for 15-20 min before any treatment.” left out

[4] = i.v., anesthetized rats, from dose-response curve

| Structure (SMILES) | ED30 (dose causing 30% of the maximal drop in blood pressure produced by sodium nitroprusside) (rats [1]; [4]) [mg/kg] | dose response curve of ARB plus (S)-amlodipine malate relative to (S)-amlodipine malate alone (rats [2]) | Potential Dosage Adjustment (%) of (S)-amlodipine malate (adjustment factor) (rats [2]) [%] | also measured |
| --- | --- | --- | --- | --- |
| CCOC(=O)C1=C(COCCN)NC(C)=C(C(=O)OC)[C@@H]1c1ccccc1Cl.O=C(O)C[C@H](O)C(=O)O [(S)-amlodipine malate] | 0.056 | – | – | ED50 (dose causing 50% of the maximal drop in blood pressure produced by sodium nitroprusside), estimated (rats [1]; [4]): 0.11 mg/kg; ED50 of (S)-amlodipine malate in the absence of an ARB (rats [2]; i.v., anesthetized rats, Phase III): 0.092 mg/kg; maximum decrease in blood pressure (rats [3]): 14-17 mmHg; time to maximum hypotensive effect post-injection (rats [3]): 35 to 55 min |
| CCOc1nc2cccc(C(=O)O)c2n1Cc1ccc(-c2ccccc2-c2nnn[nH]2)cc1 [Candasartan, 2-ethoxy-1-[[2′-(1H-tetrazol-5-yl)[1,1′-biphenyl]-4-yl]methyl]-1H-benzimidazole-7-carboxylic acid] | 0.008 | offset | – | decline in MBP at the next higher dose (rats [1]; 300 mg/kg i.v. (so in the source)): no further decline |
| CCCCc1ncc(/C=C(\Cc2cccs2)C(=O)O)n1Cc1ccc(C(=O)O)cc1 [Eprosartan, (E)-α-[[2-butyl-1-[(4-carboxyphenyl)methyl]-1H-imidazol-5-yl]methylene]-2-thiophenepropanoic acid] | – | – | 24 | – |
| CCCCC1=NC2(CCCC2)C(=O)N1Cc1ccc(-c2ccccc2-c2nnn[nH]2)cc1 [Irbesartan, 2-butyl-3-[[2′-(1H-tetrazol-5-yl)[1,1′-bephenyl]-4-yl]methyl]-1,3-diazaspiro[4,4]non-1-en-4-one] | – | – | 23 | – |
| CCCCc1nc(Cl)c(CO)n1Cc1ccc(-c2ccccc2-c2nnn[nH]2)cc1 [Losartan, 2-butyl-4-chloro-1-[[2′-(1H-tetrazol-5-yl)[1,1′-biphenyl]-4-yl]methyl]-1H-imidazole-5-methanol] | – | – | 15 | – |
| CCCc1nc2c(C)cc(-c3nc4ccccc4n3C)cc2n1Cc1ccc(-c2ccccc2C(=O)O)cc1 [Telmisartan, 4′-[(1,4′-dimethyl-2′-propyl[2,6′-bi-1H-benzimidazol]-1′-yl)methyl]-[1,1′-biphenyl]-2-carboxylic acid] | – | offset | – | – |
| CCCCC(=O)N(Cc1ccc(-c2ccccc2-c2nnn[nH]2)cc1)[C@H](C(=O)O)C(C)C [Valsartan, N-(1-oxopentyl)-N-[[2′-(1H-tetrazol-5-yl)[1,1′-biphenyl]-4-yl]methyl]-L-valine] | 0.229 | greatest leftward shift | 32 | time to maximum hypotensive effect post-injection (rats [3]): five |
